Results: paper PMC7490411 (Signal Transduction and Targeted Therapy, 2020)

Tests used:
[1] = target: T1, BLK (Homo sapiens, UniProt P51451); test: ADP-Glo biochemical kinase assay
T1 construct: purchased Invitrogen (Carlsbad, CA, USA)
Source text: (§1) The biochemical tests of BMX, BLK, JAK3, TXK, HER2, HER4, ITK, EGFR, and BTK were provided by Invitrogen (Carlsbad, CA, USA).

[2] = target: T2, BMX (Homo sapiens, UniProt P51813); test: ADP-Glo biochemical kinase assay
T2 construct: purchased Invitrogen (Carlsbad, CA, USA)
T2 sequence (P51813 1-675): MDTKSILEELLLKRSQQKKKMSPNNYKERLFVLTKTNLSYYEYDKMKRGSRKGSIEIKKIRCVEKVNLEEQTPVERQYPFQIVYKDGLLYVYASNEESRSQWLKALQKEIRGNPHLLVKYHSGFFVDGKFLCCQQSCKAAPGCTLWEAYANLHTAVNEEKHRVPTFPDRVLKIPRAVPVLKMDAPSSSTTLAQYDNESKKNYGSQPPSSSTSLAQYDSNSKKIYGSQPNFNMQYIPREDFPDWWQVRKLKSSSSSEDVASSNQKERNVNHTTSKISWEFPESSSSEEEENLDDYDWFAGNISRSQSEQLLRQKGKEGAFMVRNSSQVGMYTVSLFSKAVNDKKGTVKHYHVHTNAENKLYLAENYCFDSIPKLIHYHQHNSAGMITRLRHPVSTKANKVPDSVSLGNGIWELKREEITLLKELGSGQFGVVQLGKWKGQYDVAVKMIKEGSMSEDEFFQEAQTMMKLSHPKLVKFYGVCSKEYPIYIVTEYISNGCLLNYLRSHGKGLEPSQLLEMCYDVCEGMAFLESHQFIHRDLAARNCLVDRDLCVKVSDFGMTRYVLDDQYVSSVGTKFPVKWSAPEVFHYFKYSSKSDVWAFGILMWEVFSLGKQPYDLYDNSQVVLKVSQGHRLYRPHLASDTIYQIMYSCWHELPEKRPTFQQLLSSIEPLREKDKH
Source text: as §1

[3] = target: T3, EGFR (Homo sapiens, UniProt P00533); test: ADP-Glo biochemical kinase assay
T3 construct: purchased Invitrogen (Carlsbad, CA, USA)
T3 sequence (P00533 25-1210): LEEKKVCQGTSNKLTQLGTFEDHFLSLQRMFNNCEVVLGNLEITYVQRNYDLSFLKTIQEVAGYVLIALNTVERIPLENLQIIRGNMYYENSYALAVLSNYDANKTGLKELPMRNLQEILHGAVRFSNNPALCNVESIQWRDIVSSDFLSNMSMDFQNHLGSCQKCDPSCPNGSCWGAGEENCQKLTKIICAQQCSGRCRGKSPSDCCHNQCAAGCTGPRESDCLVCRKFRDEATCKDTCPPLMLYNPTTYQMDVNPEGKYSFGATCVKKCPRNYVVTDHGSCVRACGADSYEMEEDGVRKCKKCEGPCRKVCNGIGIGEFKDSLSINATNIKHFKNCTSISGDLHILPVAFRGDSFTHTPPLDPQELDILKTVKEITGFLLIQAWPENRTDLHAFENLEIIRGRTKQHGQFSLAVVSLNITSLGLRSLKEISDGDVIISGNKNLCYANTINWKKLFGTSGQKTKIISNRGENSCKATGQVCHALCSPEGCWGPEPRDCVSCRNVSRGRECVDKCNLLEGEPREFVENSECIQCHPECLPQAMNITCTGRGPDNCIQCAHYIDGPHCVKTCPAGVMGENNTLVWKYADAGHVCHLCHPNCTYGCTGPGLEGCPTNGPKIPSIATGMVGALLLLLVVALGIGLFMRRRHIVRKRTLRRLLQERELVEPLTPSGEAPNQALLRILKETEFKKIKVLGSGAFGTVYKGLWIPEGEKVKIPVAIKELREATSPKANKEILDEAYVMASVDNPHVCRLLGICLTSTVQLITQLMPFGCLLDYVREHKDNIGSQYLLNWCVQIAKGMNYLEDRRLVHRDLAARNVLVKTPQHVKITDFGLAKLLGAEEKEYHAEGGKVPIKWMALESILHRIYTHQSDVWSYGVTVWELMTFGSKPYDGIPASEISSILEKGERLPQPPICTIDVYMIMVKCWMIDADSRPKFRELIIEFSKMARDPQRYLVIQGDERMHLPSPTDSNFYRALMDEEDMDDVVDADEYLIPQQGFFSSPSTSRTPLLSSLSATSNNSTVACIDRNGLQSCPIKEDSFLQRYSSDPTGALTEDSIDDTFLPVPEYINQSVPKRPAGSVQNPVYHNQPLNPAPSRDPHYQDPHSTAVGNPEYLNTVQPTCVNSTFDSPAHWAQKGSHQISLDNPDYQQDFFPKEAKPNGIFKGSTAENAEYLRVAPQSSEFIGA
Source text: as §1

[4] = target: T4, HER2 (Homo sapiens, UniProt P04626); test: ADP-Glo biochemical kinase assay
T4 construct: purchased Invitrogen (Carlsbad, CA, USA)
T4 sequence (P04626 23-1255): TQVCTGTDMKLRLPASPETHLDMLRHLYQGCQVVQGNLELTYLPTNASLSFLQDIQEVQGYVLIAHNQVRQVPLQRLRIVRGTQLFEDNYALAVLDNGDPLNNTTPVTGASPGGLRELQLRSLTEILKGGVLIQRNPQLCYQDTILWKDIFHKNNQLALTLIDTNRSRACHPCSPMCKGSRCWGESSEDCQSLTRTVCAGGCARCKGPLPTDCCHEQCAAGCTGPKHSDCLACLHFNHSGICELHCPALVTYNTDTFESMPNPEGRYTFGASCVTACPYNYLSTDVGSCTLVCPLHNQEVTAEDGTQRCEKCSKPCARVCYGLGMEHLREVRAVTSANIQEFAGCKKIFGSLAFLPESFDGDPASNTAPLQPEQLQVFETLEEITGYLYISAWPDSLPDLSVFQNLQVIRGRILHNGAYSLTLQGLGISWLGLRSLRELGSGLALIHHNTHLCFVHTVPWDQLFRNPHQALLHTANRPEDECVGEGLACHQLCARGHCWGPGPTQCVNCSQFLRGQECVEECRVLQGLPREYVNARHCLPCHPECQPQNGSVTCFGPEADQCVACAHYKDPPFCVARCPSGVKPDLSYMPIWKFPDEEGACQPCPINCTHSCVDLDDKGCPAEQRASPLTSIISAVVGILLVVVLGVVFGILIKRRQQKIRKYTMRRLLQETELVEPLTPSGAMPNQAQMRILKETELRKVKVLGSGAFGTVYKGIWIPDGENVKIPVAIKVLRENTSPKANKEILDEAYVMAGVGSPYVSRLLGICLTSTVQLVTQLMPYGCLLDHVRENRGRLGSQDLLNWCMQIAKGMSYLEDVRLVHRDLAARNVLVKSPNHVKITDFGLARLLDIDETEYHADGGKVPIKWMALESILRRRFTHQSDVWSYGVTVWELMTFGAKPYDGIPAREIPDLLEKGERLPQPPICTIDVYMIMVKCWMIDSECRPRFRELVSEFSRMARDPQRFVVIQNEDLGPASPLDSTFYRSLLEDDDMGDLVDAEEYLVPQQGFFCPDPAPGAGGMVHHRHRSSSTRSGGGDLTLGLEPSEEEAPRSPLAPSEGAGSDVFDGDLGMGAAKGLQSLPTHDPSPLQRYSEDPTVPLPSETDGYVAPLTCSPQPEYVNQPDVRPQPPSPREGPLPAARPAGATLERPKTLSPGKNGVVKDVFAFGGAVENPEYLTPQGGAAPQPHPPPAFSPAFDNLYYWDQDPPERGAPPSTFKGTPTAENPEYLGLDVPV
Source text: as §1

[5] = target: T5, HER4 (Homo sapiens, UniProt Q15303); test: ADP-Glo biochemical kinase assay
T5 construct: purchased Invitrogen (Carlsbad, CA, USA)
T5 sequence (Q15303 26-1308): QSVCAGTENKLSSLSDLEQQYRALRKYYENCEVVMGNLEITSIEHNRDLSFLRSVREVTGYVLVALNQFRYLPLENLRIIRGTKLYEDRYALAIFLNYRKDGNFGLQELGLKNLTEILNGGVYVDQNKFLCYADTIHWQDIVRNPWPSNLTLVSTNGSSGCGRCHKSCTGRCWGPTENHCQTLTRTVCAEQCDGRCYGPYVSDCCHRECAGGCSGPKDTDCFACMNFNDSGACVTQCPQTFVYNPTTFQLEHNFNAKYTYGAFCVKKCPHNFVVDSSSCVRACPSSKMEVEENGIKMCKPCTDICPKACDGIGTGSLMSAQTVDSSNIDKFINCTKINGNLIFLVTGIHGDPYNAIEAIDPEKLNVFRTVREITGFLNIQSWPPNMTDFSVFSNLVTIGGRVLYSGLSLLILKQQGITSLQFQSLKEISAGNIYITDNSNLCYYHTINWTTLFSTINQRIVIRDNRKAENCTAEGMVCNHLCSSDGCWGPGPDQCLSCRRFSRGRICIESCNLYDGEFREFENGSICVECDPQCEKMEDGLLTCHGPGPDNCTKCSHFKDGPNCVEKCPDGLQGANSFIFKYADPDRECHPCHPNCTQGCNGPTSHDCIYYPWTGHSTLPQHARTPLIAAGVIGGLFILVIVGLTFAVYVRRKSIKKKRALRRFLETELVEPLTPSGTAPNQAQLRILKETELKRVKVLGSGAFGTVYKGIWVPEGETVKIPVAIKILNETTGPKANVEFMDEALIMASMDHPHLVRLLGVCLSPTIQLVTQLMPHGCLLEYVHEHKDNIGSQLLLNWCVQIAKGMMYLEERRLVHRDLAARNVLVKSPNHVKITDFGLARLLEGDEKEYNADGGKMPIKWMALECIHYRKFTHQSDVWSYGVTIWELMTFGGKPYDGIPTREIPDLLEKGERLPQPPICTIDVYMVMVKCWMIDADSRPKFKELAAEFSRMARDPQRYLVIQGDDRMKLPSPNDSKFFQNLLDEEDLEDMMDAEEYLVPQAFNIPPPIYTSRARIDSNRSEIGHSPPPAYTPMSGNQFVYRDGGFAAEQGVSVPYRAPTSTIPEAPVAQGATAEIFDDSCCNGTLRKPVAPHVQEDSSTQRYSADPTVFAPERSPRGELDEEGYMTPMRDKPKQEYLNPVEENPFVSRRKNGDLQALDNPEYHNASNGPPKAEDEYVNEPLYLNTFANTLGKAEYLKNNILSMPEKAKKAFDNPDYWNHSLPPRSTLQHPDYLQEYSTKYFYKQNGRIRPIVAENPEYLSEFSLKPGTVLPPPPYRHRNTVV
Source text: as §1

[6] = target: T6, ITK (Homo sapiens, UniProt Q08881); test: ADP-Glo biochemical kinase assay
T6 construct: purchased Invitrogen (Carlsbad, CA, USA)
T6 sequence (Q08881 1-620): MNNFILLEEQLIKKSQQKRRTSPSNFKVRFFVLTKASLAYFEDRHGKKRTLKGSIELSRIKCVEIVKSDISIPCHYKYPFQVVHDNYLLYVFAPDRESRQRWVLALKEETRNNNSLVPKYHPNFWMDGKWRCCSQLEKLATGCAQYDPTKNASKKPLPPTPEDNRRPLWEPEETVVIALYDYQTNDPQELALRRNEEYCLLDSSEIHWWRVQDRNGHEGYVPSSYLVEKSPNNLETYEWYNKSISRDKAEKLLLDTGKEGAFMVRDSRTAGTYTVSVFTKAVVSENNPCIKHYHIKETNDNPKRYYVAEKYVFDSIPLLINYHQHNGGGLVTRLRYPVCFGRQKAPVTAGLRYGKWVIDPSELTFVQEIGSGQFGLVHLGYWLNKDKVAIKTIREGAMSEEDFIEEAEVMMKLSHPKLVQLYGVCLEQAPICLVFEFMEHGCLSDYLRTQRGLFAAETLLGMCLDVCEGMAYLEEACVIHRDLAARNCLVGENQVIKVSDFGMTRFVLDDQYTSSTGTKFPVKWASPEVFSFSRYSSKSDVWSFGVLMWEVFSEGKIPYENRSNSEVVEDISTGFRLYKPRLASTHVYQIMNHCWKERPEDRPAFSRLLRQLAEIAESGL
Source text: as §1

[7] = target: T7, JAK3 (Homo sapiens, UniProt P52333); test: ADP-Glo biochemical kinase assay; conditions: read-out: IC50 against JAK3
T7 construct: purchased Invitrogen (Carlsbad, CA, USA)
Source text: as §1

[8] = target: T8, TXK (Homo sapiens, UniProt P42681); test: ADP-Glo biochemical kinase assay; conditions: read-out: IC50 against TXK
T8 construct: purchased Invitrogen (Carlsbad, CA, USA)
T8 sequence (P42681 whole entry): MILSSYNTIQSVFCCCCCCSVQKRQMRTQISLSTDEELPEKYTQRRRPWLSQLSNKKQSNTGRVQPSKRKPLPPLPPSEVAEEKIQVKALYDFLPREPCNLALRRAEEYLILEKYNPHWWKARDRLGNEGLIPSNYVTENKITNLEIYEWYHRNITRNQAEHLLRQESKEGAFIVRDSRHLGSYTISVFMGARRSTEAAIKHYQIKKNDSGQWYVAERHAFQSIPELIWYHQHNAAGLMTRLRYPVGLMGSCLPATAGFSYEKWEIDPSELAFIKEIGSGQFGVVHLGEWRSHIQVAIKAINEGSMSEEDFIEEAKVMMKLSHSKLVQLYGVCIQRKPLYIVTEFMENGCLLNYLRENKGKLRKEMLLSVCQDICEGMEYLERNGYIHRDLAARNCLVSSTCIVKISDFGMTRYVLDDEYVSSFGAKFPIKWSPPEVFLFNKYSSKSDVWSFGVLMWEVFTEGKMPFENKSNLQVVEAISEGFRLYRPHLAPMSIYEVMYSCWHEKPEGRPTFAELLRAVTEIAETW
Source text: as §1

[9] = tested on: BMPR1B; test: KINOMEscan; format: binding; conditions: 1000 nM
[10] = tested on: CAMK2G; test: KINOMEscan; format: binding; conditions: 1000 nM
[11] = tested on: CSNK1E; test: KINOMEscan; format: binding; conditions: 1000 nM
[12] = tested on: DRAK2; test: KINOMEscan; format: binding; conditions: 1000 nM
[13] = tested on: FLT3-autoinhibited; test: KINOMEscan; format: binding; conditions: 1000 nM
[14] = tested on: HUNK; test: KINOMEscan; format: binding; conditions: 1000 nM
[15] = tested on: INSR; test: KINOMEscan; format: binding; conditions: 1000 nM
[16] = tested on: MEK1; test: KINOMEscan; format: binding; conditions: 1000 nM
[17] = tested on: MERTK; test: KINOMEscan; format: binding; conditions: 1000 nM
[18] = tested on: MLK3; test: KINOMEscan; format: binding; conditions: 1000 nM
[19] = tested on: NEK9; test: KINOMEscan; format: binding; conditions: 1000 nM
[20] = tested on: NIM1; test: KINOMEscan; format: binding; conditions: 1000 nM
[21] = tested on: PDGFRA; test: KINOMEscan; format: binding; conditions: 1000 nM
[22] = tested on: PIK3CA(E545K); test: KINOMEscan; format: binding; conditions: 1000 nM
[23] = tested on: PKN1; test: KINOMEscan; format: binding; conditions: 1000 nM
[24] = tested on: RET(M918T); test: KINOMEscan; format: binding; conditions: 1000 nM
[25] = tested on: ROCK2; test: KINOMEscan; format: binding; conditions: 1000 nM
[26] = tested on: RSK2(Kin.Dom.1-N-terminal); test: KINOMEscan; format: binding; conditions: 1000 nM
[27] = tested on: SGK; test: KINOMEscan; format: binding; conditions: 1000 nM
[28] = tested on: SNARK; test: KINOMEscan; format: binding; conditions: 1000 nM
[29] = tested on: TSSK3; test: KINOMEscan; format: binding; conditions: 1000 nM

T1 sequence (P51451 whole entry): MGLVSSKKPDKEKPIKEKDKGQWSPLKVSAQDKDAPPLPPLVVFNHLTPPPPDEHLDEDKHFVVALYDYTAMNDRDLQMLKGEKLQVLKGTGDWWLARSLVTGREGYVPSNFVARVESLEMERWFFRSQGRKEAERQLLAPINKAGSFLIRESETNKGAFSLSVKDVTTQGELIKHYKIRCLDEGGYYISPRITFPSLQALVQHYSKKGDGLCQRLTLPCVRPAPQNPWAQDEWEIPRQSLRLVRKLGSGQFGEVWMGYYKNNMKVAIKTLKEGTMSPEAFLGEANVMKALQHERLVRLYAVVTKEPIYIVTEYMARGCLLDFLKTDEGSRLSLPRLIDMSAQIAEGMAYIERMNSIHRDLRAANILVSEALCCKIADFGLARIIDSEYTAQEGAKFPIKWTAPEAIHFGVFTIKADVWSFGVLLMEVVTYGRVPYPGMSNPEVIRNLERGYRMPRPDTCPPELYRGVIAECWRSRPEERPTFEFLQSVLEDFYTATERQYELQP

C=CC(=O)Nc1cc(Nc2cc(-c3cccc(NC(=O)c4cc5c(s4)CCCC5)c3C)cn(C)c2=O)ccc1N1CCN(CC)CC1 [CHMFL-BTK-85]
IC50 ([1]; read-out: IC50 against BLK): > 10 µM
selectivity over BLK ([1]; vs BTK): more than 1000 fold
IC50 ([2]; read-out: IC50 against BMX): 0.12 ± 0.0037 µM
selectivity over BMX ([2]; vs BTK): 10 fold
IC50 ([3]; read-out: IC50 against EGFR): > 10 µM
selectivity over EGFR ([3]; vs BTK): more than 1000 fold
IC50 ([4]; read-out: IC50 against HER2): > 10 µM
selectivity over HER2 ([4]; vs BTK): more than 1000 fold
IC50 ([5]; read-out: IC50 against HER4): > 10 µM
selectivity over HER4 ([5]; vs BTK): more than 1000 fold
IC50 ([6]; read-out: IC50 against ITK): > 10 µM
selectivity over ITK ([6]; vs BTK): more than 1000 fold
IC50 [7]: 2.72 ± 0.045 µM
IC50 [8]: 3.313 ± 0.017 µM
Percent Control [9]: 100%
Percent Control [10]: 100%
Percent Control [11]: 95%
Percent Control [12]: 100%
Percent Control [13]: 100%
Percent Control [14]: 100%
Percent Control [15]: 96%
Percent Control [16]: 100%
Percent Control [17]: 84%
Percent Control [18]: 91%
Percent Control [19]: 100%
Percent Control [20]: 100%
Percent Control [21]: 100%
Percent Control [22]: 98%
Percent Control [23]: 70%
Percent Control [24]: 78%
Percent Control [25]: 100%
Percent Control [26]: 100%
Percent Control [27]: 100%
Percent Control [28]: 100%
Percent Control [29]: 100%
